BindingDB's records for patent US20240376097 (Beigene, 2024)
Values joined by “and” are separate entries in the source; they are usually repeats but may differ in a detail not shown here. Equal entries are not always repeated.

The compounds below were run against Apoptosis regulator Bcl-2 (Homo sapiens, UniProt P10415) (assay: Bcl-2 TR-FRET Assay).
Chain of Apoptosis regulator Bcl-2 (P10415 whole entry): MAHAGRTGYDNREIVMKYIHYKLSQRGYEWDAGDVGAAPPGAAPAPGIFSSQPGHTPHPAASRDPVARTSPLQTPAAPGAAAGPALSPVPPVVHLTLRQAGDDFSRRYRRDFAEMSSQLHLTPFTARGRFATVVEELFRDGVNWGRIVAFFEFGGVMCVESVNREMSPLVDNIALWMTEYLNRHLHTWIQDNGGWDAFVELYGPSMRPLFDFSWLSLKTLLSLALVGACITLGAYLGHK
Experimental: Compounds disclosed herein were tested for blocking of Bcl-2 protein with its ligand in an assay based on Time-Resolved Fluorescence Resonance Energy Transfer (TR-FRET) methodology. Recombinant human 0.05 nM Bcl-2 protein was pre-incubated with a serial dilution of compounds disclosed herein (top final concentration is 1 uM or 0.1 uM or 0.02 uM or 0.01 uM, 10 points) at room temperature for 0.5 hour in an assay buffer containing 20 mM potassium phosphate buffer, pH 7.5, 50 mM NaCl. 1 mM EDTA, 0.05% Tween-20, 0.01% BSA. Then the FITC labeled Bak peptide Ac-GQVGRQLAIIGDK(FITC)INR-amide (0.5 nM) and MAb Anti 6His Tb cryptate Gold were added to plate and further incubated at room temperature for 1 hour. The TR-FRET signals (337 nm-520 nm-490 nm) were read on BMG PHERAstar FSX instrument. The inhibition percentage of Bcl-2 interaction with its ligand in presence of increasing concentrations of compounds was calculated based on the TR-FRET signals.
In the case of `COc1cc(CN2CCN(C3CC4(CCN(c5ccc(C(=O)NS(=O)(=O)c6ccc(NC[C@H]7CC[C@](C)(O)CC7)c([N+](=O)[O-])c6)c(Oc6cnc7[nH]cc(F)c7c6)c5)CC4)C3)[C@H](c3ccccc3C(C)C)C2)cc(C)c1OC` [US20240376097, Example 210], the IC50 is reported as 0.33 nM. For `COc1cc(CN2CCN(C3CC4(CCN(c5ccc(C(=O)NS(=O)(=O)c6ccc(NC[C@H]7CC[C@](C)(O)CC7)c([N+](=O)[O-])c6)c(Oc6cnc7[nH]ccc7c6)c5)CC4)C3)C(c3ccccc3C(C)C)C2)cc(OC)c1` (some centres undefined) [US20240376097, Example 49], the IC50 was 0.2 nM. For `COc1cc(CN2CCN(C3CC4(CCN(c5ccc(C(=O)NS(=O)(=O)c6ccc(NC[C@H]7CC[C@](C)(O)CC7)c([N+](=O)[O-])c6)c(Oc6cnc7[nH]cc(F)c7c6)c5)CC4)C3)[C@H](c3ccccc3C(C)C)C2)ccc1Cl` [US20240376097, Example 278], the IC50 was 0.6 nM. `CC(C)c1ccccc1[C@@H]1CN(Cc2ccc(OC3CC3)c(OC3CC3)c2)CCN1C1CC2(C1)CN(c1ccc(C(=O)NS(=O)(=O)c3ccc(NC[C@H]4CC[C@](C)(O)CC4)c([N+](=O)[O-])c3)c(Oc3cnc4[nH]cc(F)c4c3)c1)C2` [US20240376097, Example 363] was tested, and the IC50 was 0.34 nM and 0.4 nM. `COc1cc(CN2CCN(C3CC4(CCN(c5ccc(C(=O)NS(=O)(=O)c6ccc(NC[C@H]7CC[C@](C)(O)CC7)c([N+](=O)[O-])c6)c(Oc6cnc7[nH]ccc7c6)c5)CC4)C3)C(c3ccccc3C(C)C)C2)cc(C(F)(F)F)c1OC` (some centres undefined) [US20240376097, Example 179] showed an IC50 of 1.5 nM. `COc1ccc(CN2CCN(C3CC4(CCN(c5ccc(C(=O)NS(=O)(=O)c6ccc(NC[C@H]7CC[C@](C)(O)CC7)c([N+](=O)[O-])c6)c(Oc6cnc7[nH]ccc7c6)c5)CC4)C3)C(c3ccccc3C(C)C)C2)cc1` (some centres undefined) [US20240376097, Example 19] showed an IC50 of 0.086 nM. Compound `CC(C)c1ccccc1C1CN(CC(C)(C)C)CCN1C1CC2(CCN(c3ccc(C(=O)NS(=O)(=O)c4ccc(NC[C@H]5CC[C@](C)(O)CC5)c([N+](=O)[O-])c4)c(Oc4cnc5[nH]ccc5c4)c3)CC2)C1` (some centres undefined) [US20240376097, Example 12] has an IC50 of 0.73 nM. Work on `COc1cc(CN2CCN(C3CC4(CCN(c5ccc(C(=O)NS(=O)(=O)c6ccc(NC[C@H]7CC[C@](C)(O)CC7)c([N+](=O)[O-])c6)c(Oc6cnc7[nH]ccc7c6)c5)CC4)C3)[C@H](c3ccccc3C(C)C)C2)ccc1Cl` [US20240376097, Example 276] yielded an IC50 of 0.48 nM. Work on `COCCN1CCN(C2CC3(CCN(c4ccc(C(=O)NS(=O)(=O)c5ccc(NC[C@H]6CC[C@](C)(O)CC6)c([N+](=O)[O-])c5)c(Oc5cnc6[nH]ccc6c5)c4)CC3)C2)C(c2ccccc2C(C)C)C1` (some centres undefined) [US20240376097, Example 13] yielded an IC50 of 0.011 nM.
